Measured values from patent US20250163387A1, “HUMAN PITUITARY NEUROENDOCRINE TUMOR ORGANOIDS AND METHODS OF MAKING AND USING THE SAME” (ARIZONA BOARD OF REGENTS OF THE UNIVERSITY OF ARIZONA, A …, priority 2022, published 2025).

Legend:
FKBP5 = test: GR modulation: GR target gene FKBP5 expression in PitNET organoids; assay type: cell-based, human
[1] = system: hPITOs generated from CD patients; test: High-throughput drug screen, MTS assay; assay type: cell-based, human; conditions: 1 uM, 72 hrs
Protocol: Patient adenoma-derived pituitary organoids were grown in 96-well plates and treated with 147 small molecules taken from the NCI AOD9 compound library for 72 hrs. (https://dtp.cancer.gov/organization/dscb/obtaining/available_plates.html). Drugs were diluted from 10 mM DMSO stock plates into 100 uM DMSO working stocks with a final concentration of 1 uM. All vehicle controls were treated with 0.1% DMSO. Organoid proliferation was measured using CellTiter 96® AQueous One Solution Cell Proliferation Assay kit (MTS, Promega, G3582) according to the manufacturer's instruction. Organoid death was calculated based on the absorbance readings at 490 nm, collected from the MTS assay relative to the vehicle controls. Drug screens were performed with biological replicates in same screen. Drugs were selected based on their ability to target key signaling pathways and clinical relevance to the treatment. Drug sensitivity is represented by cell viability and is significant at <0.5 suppressive effect of the drugs. The percent cell viability relative to the vehicle control was calculated. Correlation coefficient across each organoid were calculated using Pearson method to assess confidence in replication. Variance Component was detected for each drug across all organoids. A random effect model was run with a single random factor for each drug and estimated variance was calculated by rejecting the null hypothesis that there isn't variation among samples. The drug responses were grouped by variance factor large (vc>100), median (100>vc>50), and small (vc<50). Heatmap was used to display the differential responses in cell viability for the drugs.
Tumor recurrence can occur in as many as 30-50% of CD patients after successful surgical treatment. Unfortunately, bilateral adrenalectomy is the chosen surgical treatment for patients with persistent CD [35]. Bilateral adrenalectomy leads to the increased risk for development of Nelson's syndrome (progressive hyperpigmentation due to ACTH secretion and expansion of the residual pituitary tumor). Although the risk of developing Nelson's syndrome following adrenalectomy can be reduced by 50% with stereotactic radiotherapy, there is a need to develop medical therapies that directly target the pituitary adenoma. Thus, we established a high-throughput drug screening assay using patient-derived pituitary organoids. […] The replicates behaved consistently with the drug response with the correlation scores of >0.8 for these samples (FIG. 3a). We estimated the variance component for each drug across all organoids. […] The drug responses were grouped by variance factor large, median, and small. The larger the variance the more variable is the drug response across the organoids. […]

iPSC^USP48MV organoids [2] = test: Proliferation by EdU uptake; assay type: cell-based, human; conditions: drug alone, 500 nM
Protocol: (§1) Organoids were immunostained using published protocols by our laboratory. Proliferation was measured by using 5-ethynyl-2'-deoxyuridine (EdU) incorporation according to the Manufacturer's protocol (Click-IT EdU Alexa Fluor 555 Imaging Kit, Thermo Fisher Scientific C10338). Costaining was performed by blocking fixed organoids with 2% donkey serum (Jackson Immuno Research, #017-000-121) diluted in 0.01% PBST for 1 hr. at room temperature. Organoids were then incubated overnight at 4° C. with primary antibodies followed by secondary antibodies and Hoechst (Thermo Fisher Scientific H1399, 1:1000 in 0.01% PBST) for 1 hr at room temperature. Human specific primary antibodies used included: rabbit anti-ACTH (Thermo Fisher Scientific 701293, 1:250), rabbit anti-Synaptophysin (Thermo Fisher Scientific PA5-27286, 1:100), […] (Thermo Fisher Scientific PA5-98650, 1:50), rabbit anti-LH (Thermo Fisher Scientific PA5-102674, 1:100), mouse anti-FSH (Thermo Fisher Scientific MIF2709, 1:100), mouse anti-PRL (Thermo Fisher Scientific CF500720, 1:100), Alexa Flour conjugated GH (NB500-364AF647, 1:100) and mouse anti-CAM5.2 (SIGMA […]-95, 1:250). The secondary antibodies used included Alexa Fluor 488 Donkey Anti Rabbit IgG (H+L) (Thermo Fisher Scientific A21206, 1:100) or Alexa Fluor 647 Donkey Anti Mouse IgG (H+L) (Thermo Fisher Scientific A31571, 1:100). Organoids were visualized and images acquired by confocal microscopy using the Nikon CrestV2 Spinning Disk. Fluorescence intensity and percentage of EdU positive cells of total cells, were calculated using Nikon Elements Software (Version 5.21.05).

iPSC^ctrl organoids [3] = test: Proliferation by EdU uptake; assay type: cell-based, human; conditions: drug alone, 500 nM
Protocol: as §1

iPSC^USP48MV organoids [4] = test: ACTH secretion ELISA of conditioned media; assay type: cell-based, human; conditions: 500 nM
Protocol: (§2) Concentration of secreted ACTH in conditioned media that was collected from organoid cultures was measured using the Human ACTH ELISA Kit (Novus Biologicals, NBP2-66401) according to the manufacturer's protocol. The enzyme-substrate reaction was measured spectrophotometrically (BioTek Gen5 Micro Plate Reader Version 3.11) at a wavelength of 450 nm and the ACTH concentration (pg/mL) was interpolated using a standard curve with a 4-parameter logistic regression analysis using GraphPad Prism (Version 9.2.0).

iPSC^ctrl organoids [5] = test: ACTH secretion ELISA of conditioned media; assay type: cell-based, human; conditions: 500 nM
Protocol: as §2

macroadenomas = conditions: patients with macroadenomas; relacorilant for three months; cited from earlier work
SSTR5 = test: Differential expression of SSTR5 in iPSC generated pituitary tumor organoids; assay type: cell-based, human

CC#C[C@]1(O)CC[C@H]2[C@@H]3CCC4=CC(=O)CCC4=C3[C@@H](c3ccc(N(C)C)cc3)C[C@@]21C [Mifepristone]
differential expression of FKBP5 (FKBP5): significantly reduced
response of the adenoma cells within the organoids ([1]; hPITO7, 10 and 25): ~0%
response of the adenoma cells within the organoids ([1]; hPITO34 and hPITO35): 50%
cell proliferation (EdU uptake) (iPSC^USP48MV organoids [2]): significant increase
cell proliferation (EdU uptake) (iPSC^ctrl organoids [3]): significant increase
magnitude of ACTH secretion induced (iPSC^USP48MV organoids [4]): significantly greater than the effect of relacorilant
magnitude of ACTH secretion induced (iPSC^ctrl organoids [5]): significantly greater than the effect of relacorilant
tumor (macroadenoma) regression (macroadenomas): have not been observed
expression of SSTR5 (SSTR5; iPSC organoids (ctrl, USP48MI, USP48MV, USP8), 500 nM, vs vehicle): significant induction
differential expression of SSTR5 (SSTR5; iPSC^ctrl organoids, drug alone (Mife 500 nM, GANT 5 uM, Keto 10 uM, Dexa 100 nM)): significantly induced
